Data reported in ChEMBL document CHEMBL5360578, “Design, synthesis and evaluation of novel pyrrole-hydroxybutenolide hybrids as promising antiplasmodial and anti-inflammatory agents” (Eur J Med Chem, 2023).
The source made the active and inactive calls. No cut-off for these calls is given here.

Key:
Plasmodium falciparum [1] = experiment: Antimalarial activity against asynchronous chloroquine-sensitive Plasmodium falciparum 3D7 assessed as parasite growth inhibition infected in erythrocytes incubated for 72 hrs by SYBR green dye based assay; type: functional, organism-based; settings: 3D7, 72 h
THP-1 [2] = experiment: Antiinflammatory activity against human THP-1 cells assessed as inhibition of LPS-induced TNFalpha level at 10 uM incubated for 12 to 14 hrs followed by compound replenishment for 1 hr and subsequent LPS treatment for 4 hrs by ELISA assay (reference value: 93.43 %); type: functional; design: scale not given: the % may be the effect or the level left; settings: time 17-19 hrs
HEK-293T = experiment: Antiinflammatory activity against HEK293T cells assessed as fold increase in TNFalpha-induced NF-kappaB activity at 10 uM incubated for 1 hr followed by TNFalpha treatment for 5 hrs by luciferase based assay (reference value: 17.1); type: functional, Homo sapiens
THP-1 [3] = experiment: Cytotoxicity against LPS-stimulated human THP-1 cells assessed as cell viability at 10 uM incubated for 12 hrs followed by LPS treatment measured after 4 hrs by PI staining based flow cytometry; type: functional; settings: time 16.0 hrs
Plasmodium falciparum [4] = experiment: Antimalarial activity against asynchronous chloroquine-resistant Plasmodium falciparum K1 assessed as parasite growth inhibition infected in erythrocytes incubated for 72 hrs by SYBR green dye based assay; type: functional, organism-based; settings: K1, 72 h
[5] = Stability in simulated gastric fluid assessed as compound remaining at pH 1.2 measured upto 120 mins by LC-MS analysis; type: ADME; settings: read-out: Stability
[6] = Stability in simulated intestinal fluid assessed as compound remaining at pH 6.8 measured upto 120 mins by LC-MS analysis; type: ADME; settings: read-out: Stability
Mus musculus [7] = experiment: Antiinflammatory activity in Swiss albino mouse assessed as inhibition of carrageenan-induced paw edema at 25 mg/kg,po pretreated for 1 hr followed by carrageenan administration measured after 4 hrs relative to control; type: functional; settings: time 5 hrs
Mus musculus [8] = experiment: Antiinflammatory activity in Swiss albino mouse assessed as inhibition of carrageenan-induced paw edema at 50 mg/kg,po pretreated for 1 hr followed by carrageenan administration measured after 4 hrs relative to control; type: functional; settings: time 5 hrs
Mus musculus [9] = experiment: Antiinflammatory activity in Swiss albino mouse assessed as inhibition of carrageenan-induced paw edema at 100 mg/kg,po pretreated for 1 hr followed by carrageenan administration measured after 4 hrs relative to control; type: functional; settings: time 5 hrs
Mus musculus [10] = experiment: Antiinflammatory activity in Swiss albino mouse assessed as inhibition of carrageenan-induced paw edema at 25 mg/kg,po pretreated for 1 hr followed by carrageenan administration measured after 6 hrs relative to control; type: functional; settings: time 7 hrs
Mus musculus [11] = experiment: Antiinflammatory activity in Swiss albino mouse assessed as inhibition of carrageenan-induced paw edema at 50 mg/kg,po pretreated for 1 hr followed by carrageenan administration measured after 6 hrs relative to control; type: functional; settings: time 7 hrs
Mus musculus [12] = experiment: Antiinflammatory activity in Swiss albino mouse assessed as inhibition of carrageenan-induced paw edema at 100 mg/kg,po pretreated for 1 hr followed by carrageenan administration measured after 6 hrs relative to control; type: functional; settings: time 7 hrs
THP-1 [13] = experiment: Downregulation of LPS-induced ERK1/2 phosphorylation in human THP-1 cells at 10 uM incubated for 60 mins followed by LPS treatment 90 mins by […]; type: functional, cell-based; settings: time 150.0 min
THP-1 [14] = experiment: Downregulation of LPS-induced JNK1/2 phosphorylation in human THP-1 cells at 10 uM incubated for 60 mins followed by LPS treatment 90 mins by […]; type: functional, cell-based; settings: time 150.0 min
[15] = Stability in simulated physiological fluid assessed as compound remaining at pH 7.4 measured upto 120 mins by LC-MS analysis; type: physicochemical; settings: read-out: Stability
[16] = Stability in mouse plasma assessed as compound remaining at 10 uM measured upto 120 mins by LC-MS analysis; type: ADME, cell-free; settings: read-out: Stability
[17] = Cmax in fasted Swiss mouse at 50 mg/kg, po measured upto 48 hrs by LC-MS/MS analysis; type: ADME, organism-based; design: time < 48 hrs, dose 50 mg/kg, route po; settings: in vivo
[18] = Tmax in fasted Swiss mouse at 50 mg/kg, po measured upto 48 hrs by LC-MS/MS analysis; type: ADME, organism-based; settings: in vivo
[19] = AUC in fasted Swiss mouse at 50 mg/kg, po measured upto 48 hrs by LC-MS/MS analysis; type: ADME, organism-based; design: time < 48 hrs, dose 50 mg/kg, route po; settings: in vivo
[20] = Half life in fasted Swiss mouse at 50 mg/kg, po measured upto 48 hrs by LC-MS/MS analysis; type: ADME, organism-based; settings: in vivo
[21] = Clearance in fasted Swiss mouse at 50 mg/kg, po measured upto 48 hrs by LC-MS/MS analysis; type: ADME, organism-based; settings: in vivo
[22] = Volume of distribution in fasted Swiss mouse at 50 mg/kg, po measured upto 48 hrs by LC-MS/MS analysis; type: ADME, organism-based; settings: in vivo
[23] = MRT in fasted Swiss mouse at 50 mg/kg, po measured upto 48 hrs by LC-MS/MS analysis; type: ADME, organism-based; settings: in vivo
[24] = Cytotoxicity against African green monkey Vero cells incubated for 3 days by fluorescence based assay; type: toxicity, cell-based; settings: chlorocebus sabaeus, time 3 day
Plasmodium yoelii [25] = experiment: Antimalarial activity against chloroquine-resistant Plasmodium yoelii N67 infected in Swiss mouse assessed as parasite growth suppression at 100 mg/kg/day, po for 4 days measured on day 4 relative to control; type: functional; settings: time 4 day
Plasmodium yoelii [26] = experiment: Antimalarial activity against chloroquine-resistant Plasmodium yoelii N67 infected in Swiss mouse assessed as parasite growth suppression at 100 mg/kg/day, po for 4 days measured on day 7 relative to control; type: functional; settings: time 7 day
[27] = Toxicity in Swiss mouse infected with chloroquine-resistant Plasmodium yoelii N67 assessed as mean survival time at 100 mg/kg/day, po for 4 days (reference value: 7.2 +/- 1.3 day); type: organism-based; settings: in vivo, 96 h, time 4 day

SMILES	IC50 (Plasmodium falciparum [1]) [µM]	Activity (THP-1 [2]) [%]	fold change (FC) (HEK-293T)	Activity (THP-1 [3])	further results
Cc1ccc(-c2c(-c3ccccc3)c(C(=O)Nc3ccccc3)c(C)n2CC2=CC(=O)OC2O)cc1 (stereo not given)	1.31	84	12.5	Active	–
Cc1c(C(=O)Nc2ccccc2)c(-c2ccccc2)c(-c2ccc(F)cc2)n1CC1=CC(=O)OC1O (stereo not given)	2.66	83.11	10.3	Active	–
Cc1c(C(=O)Nc2ccccc2)c(-c2ccccc2)c(-c2ccc(C(C)C)cc2)n1C	2.94	–	–	–	IC50 (Plasmodium falciparum [4]): 4.34 µM
CC(C)c1c(C(=O)Nc2ccccc2)c(-c2ccccc2)c(-c2ccc(F)cc2)n1CC[C@@H](O)C[C@@H](O)CC(=O)O [ATORVASTATIN]	4.6	–	–	–	IC50 (Plasmodium falciparum [4]): > 5 µM
Cc1c(C(=O)Nc2ccccc2)c(-c2ccccc2)c(-c2ccc(Cl)cc2)n1CC1=CC(=O)OC1O (stereo not given)	1.36	88.38	12.1	Active	–
COc1ccc(-c2c(C(=O)Nc3ccccc3)c(C)n(CCC3=CC(=O)OC3O)c2-c2ccc(OC)cc2)cc1 (stereo not given)	1.49	85.2	8.6	Active	–
Cc1c(C(=O)Nc2ccccc2)c(-c2ccccc2)c(-c2ccc(Cl)cc2)n1CCC1=CC(=O)OC1O (stereo not given)	2.19	35.92	10.4	Active	–
Cc1c(C(=O)Nc2ccccc2)c(-c2ccc(Cl)cc2)c(-c2ccc(Cl)cc2)n1CCC1=CC(=O)OC1O (stereo not given)	1.47	92.36	9.9	Active	remaining at 2 h [5]: 89.5%; remaining at 2 h [6]: 84.4%; inhibition in vivo at 25 mg/kg (Mus musculus [7]): 61%; inhibition in vivo at 50 mg/kg (Mus musculus [8]): 62%; inhibition in vivo at 100 mg/kg (Mus musculus [9]): 73%; inhibition in vivo at 25 mg/kg (Mus musculus [10]): 56%; inhibition in vivo at 50 mg/kg (Mus musculus [11]): 56%; inhibition in vivo at 100 mg/kg (Mus musculus [12]): 65%; Activity (THP-1 [13]): Active; Activity (THP-1 [14]): Active; remaining at 2 h [15]: 87.9%; remaining at 2 h, 10 µM [16]: 86.5%; Cmax [17]: 110 ng/mL; Tmax [18]: 15 min; AUC at 48 h [19]: 86.9 ng·h/mL; half-life [20]: 52.2 min; CL/F [21]: 589 L/h/kg; Vd [22]: 754.5 L/kg; MRT [23]: 61.2 min
Cc1c(C(=O)Nc2ccccc2)c(-c2ccc(F)cc2)c(-c2ccc(F)cc2)n1CCC1=CC(=O)OC1O (stereo not given)	> 5	12.55	9.7	Active	–
COc1ccc(-c2c(C(=O)Nc3ccccc3)c(C)n(CC3=CC(=O)OC3O)c2-c2ccc(OC)cc2)cc1 (stereo not given)	1.8	19.82	9.8	Active	–
CC1=CCC[C@@H]2[C@@](C)(CCC3=CC(=O)O[C@@H]3O)[C@H](C)CC[C@@]12C	1.27	–	–	–	IC50 (Plasmodium falciparum [4]): 2.88 µM
Cc1c(C(=O)Nc2ccccc2)c(-c2ccccc2)c(-c2ccccc2)n1CC1=CC(=O)OC1O (stereo not given)	1.42	78.73	10.6	Active	–
CCc1ccc(-c2c(-c3ccccc3)c(C(=O)Nc3ccccc3)c(C)n2CC2=CC(=O)OC2O)cc1 (stereo not given)	1.21	89.97	7	Active	–
COc1ccc(-c2c(-c3ccccc3)c(C(=O)Nc3ccccc3)c(C)n2CC2=CC(=O)OC2O)cc1 (stereo not given)	3.39	79.88	10.4	Active	–
Cc1c(C(=O)Nc2ccccc2)c(-c2ccc(Cl)cc2)c(-c2ccc(Cl)cc2)n1CC1=CC(=O)OC1O (stereo not given)	1.87	91.04	8.5	Active	–
Cc1ccc(-c2c(-c3ccccc3)c(C(=O)Nc3ccccc3)c(C)n2CCC2=CC(=O)OC2O)cc1 (stereo not given)	0.6	46.46	13.1	Active	IC50 (Plasmodium falciparum [4]): 3.92 µM; CC50 at 72 h [24]: > 200 µM; Activity (Plasmodium yoelii [25]): 34.6%; Activity (Plasmodium yoelii [26]): 80.68%; MST [27]: 14.6 days
Cc1c(C(=O)Nc2ccccc2)c(-c2ccccc2)c(-c2ccc(F)cc2)n1CCC1=CC(=O)OC1O (stereo not given)	0.88	89.15	11.4	Active	IC50 (Plasmodium falciparum [4]): 4.31 µM; CC50 at 72 h [24]: > 200 µM; Activity (Plasmodium yoelii [25]): 56.4%; Activity (Plasmodium yoelii [26]): 46.6%; MST [27]: 8 days
O=C1C=C(O)CO1	4.88	–	–	–	IC50 (Plasmodium falciparum [4]): > 5 µM
Cc1c(C(=O)Nc2ccccc2)c(-c2ccc(F)cc2)c(-c2ccc(F)cc2)n1CC1=CC(=O)OC1O (stereo not given)	4.62	32.69	9	Active	–
O=C1OC(O)C(Cl)=C1Cl (stereo not given) [MUCOCHLORIC ACID]	4	–	–	–	IC50 (Plasmodium falciparum [4]): > 5 µM
Cc1ccc(-c2c(C(=O)Nc3ccccc3)c(C)n(CCC3=CC(=O)OC3O)c2-c2ccc(C)cc2)cc1 (stereo not given)	> 5	–	–	–	–
COc1ccc(-c2c(-c3ccccc3)c(C(=O)Nc3ccccc3)c(C)n2CCC2=CC(=O)OC2O)cc1 (stereo not given)	> 5	–	–	–	–
CCN(CC)CCCC(C)Nc1ccnc2cc(Cl)ccc12 (stereo not given) [CHLOROQUINE]	–	–	–	–	CC50 at 72 h [24]: 187 µM
Cc1c(C(=O)Nc2ccccc2)c(-c2ccccc2)c(-c2ccccc2)n1CCC1=CC(=O)OC1O (stereo not given)	2.83	13.5	10.3	Active	–
CCc1ccc(-c2c(-c3ccccc3)c(C(=O)Nc3ccccc3)c(C)n2CCC2=CC(=O)OC2O)cc1 (stereo not given)	1.55	89.93	7.8	Active	–
